Data as given in US20250145633A1, “SUBSTITUTED FURANOPYRIMIDINE COMPOUNDS AS PDE1 INHIBITORS” (Dart NeuroScience, LLC, priority 2017, published 2025).
Counter-ions that a name gives are not always drawn.

biological target: human PDE1B enzyme (Homo sapiens (Human), UniProt Q01064); assay: IMAP TR-FRET PDE1B enzymatic assay; type: biochemical; conditions: negative log of half-maximal molar inhibitory concentration; 200 nM FAM-cAMP; values given as bins
Summary of the method: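 Full-length GST-tagged human PDE1B (250 pg/well) in IMAP BSA buffer with 10 U/ml calmodulin and 2.5 mM CaCl2; compound pre-incubated 5 min at room temperature, then 200 nM (final) FAM-cAMP for 30 min. IMAP binding reagent/Tb added, 1 h; TR-FRET 520/490 ratio read. IC50 from sigmoidal dose-response fit.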

In the case of `Cc1oc2ncnc(NC3(C)CC3)c2c1C(=O)NCc1ncc(Cl)cn1` [Example 716, N-[(5-Chloropyrimidin-2-yl)methyl]-6-methyl-4-[(1-methylcyclopropyl)amino]furo[2,3-d]pyrimidine-5-carboxamide], the “PDE1b (pIC50)” value is reported as greater than 8.
`Cc1oc2ncnc(NC3(C)CC3)c2c1C(=O)N1CCc2c(OCCF)ccnc2C1` [Example 20, 5-[4-(2-Fluoroethoxy)-5,6,7,8-tetrahydro-1,7-naphthyridine-7-carbonyl]-6-methyl-N-(1-methylcyclopropyl)furo[2,3-d]pyrimidin-4-amine trifluoroacetate] was tested, and the “PDE1b (pIC50)” value was greater than 8.
With `Cc1oc2ncnc(NC3(C)CC3)c2c1C(=O)NCCOc1ccc(F)cc1` [Example 585, N-[2-(4-Fluorophenoxy)ethyl]-6-methyl-4-[(1-methylcyclopropyl)amino]furo[2,3-d]pyrimidine-5-carboxamide] the “PDE1b (pIC50)” value was greater than 8.
For `Cc1nsc(NC(=O)c2c(C)oc3ncnc(NC4(C)CC4)c23)n1` [Example 454, 6-Methyl-N-(3-methyl-1,2,4-thiadiazol-5-yl)-4-[(1-methylcyclopropyl)amino]furo[2,3-d]pyrimidine-5-carboxamide], the “PDE1b (pIC50)” value was greater than 8.

same assay, conditions: negative log of half-maximal molar inhibitory concentration; 200 nM FAM-cAMP; values given as bins; read-out: PDE1b (pIC50) (converted)

`Cc1oc2ncnc(NC3(C)CC3)c2c1C(=O)N(C)Cc1cccc(F)c1` [Example 250, N-[(3-Fluorophenyl)methyl]-N,6-dimethyl-4-[(1-methylcyclopropyl)amino]furo[2,3-d]pyrimidine-5-carboxamide] and `Cc1oc2ncnc(NC3(C)CC3)c2c1C(=O)N(C)Cc1cc2cc(F)ccc2[nH]1` [Example 569, N-[(5-Fluoro-1H-indol-2-yl)methyl]-N,6-dimethyl-4-[(1-methylcyclopropyl)amino]furo[2,3-d]pyrimidine-5-carboxamide] fall in the same range of IC50: 10 to 100 nM for the first, 10 to 100 nM for the second.

`Cc1oc2ncnc(NC3(C)CC3)c2c1C(=O)N1CCc2nc(C3CC3)ncc2C1` [Example 2, (2-Cyclopropyl-7,8-dihydropyrido[4,3-d]pyrimidin-6(5H)-yl)(6-methyl-4-((1-methylcyclopropyl)amino)furo[2,3-d]pyrimidin-5-yl)methanone] and `Cc1oc2ncnc(NC3(C)CC3)c2c1C(=O)N1CCN(c2nc(Cl)ncc2F)CC1` [Example 362, 5-[4-(2-Chloro-5-fluoropyrimidin-4-yl)piperazine-1-carbonyl]-6-methyl-N-(1-methylcyclopropyl)furo[2,3-d]pyrimidin-4-amine] fall in the same range of IC50: 10 to 100 nM for the first, 10 to 100 nM for the second.

Compared with `Cc1oc2ncnc(NC3(C)CC3)c2c1C(=O)N1CCOC(c2ccncc2)C1` (centres unmarked) [Example 119, 6-Methyl-N-(1-methylcyclopropyl)-5-[2-(pyridin-4-yl)morpholine-4-carbonyl]furo[2,3-d]pyrimidin-4-amine], `Cc1oc2ncnc(NC3(C)CC3)c2c1C(=O)N1CC(c2ccc(F)cn2)C1` [Example 31, 5-[3-(5-Fluoropyridin-2-yl)azetidine-1-carbonyl]-6-methyl-N-(1-methylcyclopropyl)furo[2,3-d]pyrimidin-4-amine] is lower in IC50: 100 to 1000 nM for the first, 10 to 100 nM for the second.

`Cc1oc2ncnc(NC3(C)CC3)c2c1C(=O)NC1(C)CCOC1` (centres unmarked) [Example 107, 6-Methyl-4-[(1-methylcyclopropyl)amino]-N-(3-methyloxolan-3-yl)furo[2,3-d]pyrimidine-5-carboxamide] and `Cc1oc2ncnc(NC3(C)CC3)c2c1C(=O)NC(C)C(C)C` (centres unmarked) [Example 170, 6-Methyl-N-(3-methylbutan-2-yl)-4-[(1-methylcyclopropyl)amino]furo[2,3-d]pyrimidine-5-carboxamide] fall in the same range of IC50: 10 to 100 nM for the first, 10 to 100 nM for the second.

`Cc1oc2ncnc(NC3(C)CC3)c2c1C(=O)NCCc1cccs1` [Example 222, 6-Methyl-4-[(1-methylcyclopropyl)amino]-N-[2-(thiophen-2-yl)ethyl]furo[2,3-d]pyrimidine-5-carboxamide] and `Cc1oc2ncnc(NC3(C)CC3)c2c1C(=O)NCCc1ccco1` [Example 188, N-[2-(Furan-2-yl)ethyl]-6-methyl-4-[(1-methylcyclopropyl)amino]furo[2,3-d]pyrimidine-5-carboxamide] fall in the same range of IC50: 10 to 100 nM for the first, 10 to 100 nM for the second.

`Cc1oc2ncnc(NC3(C)CC3)c2c1C(=O)NC(C)c1ccc(F)cc1` (centres unmarked) [Example 68, N-[1-(4-Fluorophenyl)ethyl]-6-methyl-4-[(1-methylcyclopropyl)amino]furo[2,3-d]pyrimidine-5-carboxamide] and `Cc1oc2ncnc(NC3(C)CC3)c2c1C(=O)NCCc1nc2cc(F)ccc2[nH]1` [Example 724, N-[2-(5-Fluoro-1H-1,3-benzodiazol-2-yl)ethyl]-6-methyl-4-[(1-methylcyclopropyl)amino]furo[2,3-d]pyrimidine-5-carboxamide] fall in the same range of IC50: 10 to 100 nM for the first, 10 to 100 nM for the second.

`Cc1oc2ncnc(NC3(C)CC3)c2c1C(=O)Nc1cnn(C2CC2)c1` [Example 645, N-(1-Cyclopropyl-1H-pyrazol-4-yl)-6-methyl-4-[(1-methylcyclopropyl)amino]furo[2,3-d]pyrimidine-5-carboxamide] and `Cc1oc2ncnc(NC3(C)CC3)c2c1C(=O)Nc1cnn(C)c1C` [Example 417, N-(1,5-Dimethyl-1H-pyrazol-4-yl)-6-methyl-4-[(1-methylcyclopropyl)amino]furo[2,3-d]pyrimidine-5-carboxamide] fall in the same range of IC50: 10 to 100 nM for the first, 10 to 100 nM for the second.

`Cc1oc2ncnc(NC3(C)CC3)c2c1C(=O)NC1CCc2cccnc21` (centres unmarked) [Example 316, N-{5H,6H,7H-Cyclopenta[b]pyridin-7-yl}-6-methyl-4-[(1-methylcyclopropyl)amino]furo[2,3-d]pyrimidine-5-carboxamide] and `Cc1cccnc1NC(=O)c1c(C)oc2ncnc(NC3(C)CC3)c12` [Example 428, 6-Methyl-4-[(1-methylcyclopropyl)amino]-N-(3-methylpyridin-2-yl)furo[2,3-d]pyrimidine-5-carboxamide] fall in the same range of IC50: 100 to 1000 nM for the first, 100 to 1000 nM for the second.

`Cc1oc2ncnc(NC3(C)CC3)c2c1C(=O)N1CCN(c2nccs2)CC1` [Example 35, 6-Methyl-N-(1-methylcyclopropyl)-5-[4-(1,3-thiazol-2-yl)piperazine-1-carbonyl]furo[2,3-d]pyrimidin-4-amine] and `Cc1oc2ncnc(NC3(C)CC3)c2c1C(=O)Nc1cnc(N2CCOCC2)cn1` [Example 658, 6-Methyl-4-[(1-methylcyclopropyl)amino]-N-[5-(morpholin-4-yl)pyrazin-2-yl]furo[2,3-d]pyrimidine-5-carboxamide] fall in the same range of IC50: 10 to 100 nM for the first, 10 to 100 nM for the second.

`CON(C)C(=O)c1c(C)oc2ncnc(NC3(C)CC3)c12` [Example 643, N-Methoxy-N,6-dimethyl-4-[(1-methylcyclopropyl)amino]furo[2,3-d]pyrimidine-5-carboxamide] and `Cc1oc2ncnc(NC3(C)CC3)c2c1C(=O)N(C)C` [Example 81, N,N,6-Trimethyl-4-[(1-methylcyclopropyl)amino]furo[2,3-d]pyrimidine-5-carboxamide] fall in the same range of IC50: 100 to 1000 nM for the first, 100 to 1000 nM for the second.

`Cc1oc2ncnc(NC3(C)CC3)c2c1C(=O)NCc1ncc(C(F)(F)F)cn1` [Example 696, 6-Methyl-4-[(1-methylcyclopropyl)amino]-N-{[5-(trifluoromethyl)pyrimidin-2-yl]methyl}furo[2,3-d]pyrimidine-5-carboxamide] and `Cc1ncc(CNC(=O)c2c(C)oc3ncnc(NC4(C)CC4)c23)cn1` [Example 679, 6-Methyl-4-[(1-methylcyclopropyl)amino]-N-[(2-methylpyrimidin-5-yl)methyl]furo[2,3-d]pyrimidine-5-carboxamide] fall in the same range of IC50: 10 to 100 nM for the first, 10 to 100 nM for the second.
